From publication PMC11257079 (Environmental science and pollution research international, 2024)
Converted amounts (≈) assume the structure as drawn. Where two headings read alike, the source gives them in different places.

Columns and labels:
[1] = tested on: Hydra vulgaris; test: Hydra vulgaris assay; assay type: in vivo; conditions: 92 h, read-out: Morphology EC50
[2] = tested on: Lemna minor; test: whole plant or invertebrate; assay type: in vivo; conditions: for EC50 / inhibition at 1.3 µM: Lemna minor, 168 h
[3] = tested on: Caenorhabditis elegans; test: whole plant or invertebrate; assay type: in vivo; conditions: for EC50: Caenorhabditis elegans, 48 h
[4] = ref PubChem, NIH; cited from earlier work
[5] = at neutral pH and 20–25°C; ref PubChem, NIH; cited from earlier work
[6] = 168 hour (7 day), 95% confidence interval in brackets
[7] = 168 hour (7 day), 95% confidence interval in brackets, listed as pentachlorophenol
[8] = read-out: Chlorophyll Content EC50
[9] = 48 hour, 95% confidence interval in brackets

SMILES	EC50 [1] [µM]	Chlorophyll Content EC10 [2, 6]	Frond Number EC10 [2, 6]	Surface Area EC10 [2, 6]	EC50 [2, 8] [µM]	EC50 ([2]; read-out: Frond Number EC50) [µM]	EC50 ([2]; read-out: Surface Area EC50) [µM]	Body Length EC10 [3, 9]	Nose Touch EC10 [3, 9]	Survival EC10 [3, 9]	EC50 ([3]; read-out: Body Length EC50) [µM]	EC50 ([3]; read-out: Nose Touch EC50) [µM]	EC50 ([3]; read-out: Survival EC50) [µM]	LogP [4]	Solubility in water [5] [µg/mL]	other results
Oc1c(Cl)c(Cl)c(Cl)c(Cl)c1Cl [Pentachlorophenol]	1.9	0.00073 (0.00027–0.0012) mM	0.0053 (0.0037–0.0070) mM	0.0086 (0–0.031) mM	2.3	8.4	88	0.21 (0–0.98) mM	0.17 NA mM	0.11 (0.099–0.13) mM	180	190	170	–	–	Chlorophyll Content EC10 [2, 7]: 0.00073 mM; Frond Number EC10 [2, 7]: 0.0053 mM; Surface Area EC10 [2, 7]: 0.0086 mM; Body Length EC10 ([3]; 48 hour, 95% confidence interval in brackets, listed as pentachlorophenol): 0.21 mM
Cl[C@H]1[C@H](Cl)[C@@H](Cl)[C@@H](Cl)[C@H](Cl)[C@H]1Cl [Lindane]	22	0.0039 (0.0016–0.0061) mM	0.0048 (0.0036–0.0060) mM	0.0040 (0.0021–0.0059) mM	6.1	7.3	11	0.048 (0–0.21) mM	0.020 (0–0.051) mM	0.055 (0–0.45) mM	540	140	38	3.8	2 (≈ 0.00688 mM)	Chlorophyll Content EC10 ([2]; 168 hour (7 day), 95% confidence interval in brackets, listed as lindane): 0.0039 mM
C[n+]1ccc(-c2cc[n+](C)cc2)cc1 [Paraquat]	44	0.00014 (0.00012–0.00016) mM	0.000090 (0.000080–0.000010) mM	0.000098 (0.000060–0.000013) mM	0.16	0.12	0.11	0.086 (0–0.63) mM	0.50 (0–1.3) mM	0.044 (0–0.21) mM	1700	860	50	1.7	>620000	–
Oc1c(Cl)cc(Cl)cc1Cl [2,4,6-trichlorophenol]	–	–	–	–	4	3.6	3.5	–	–	–	180	250	230	–	–	inhibition at 1.3 µM ([2]; read-out: Inhibition of frond number): -3 ± 7%; inhibition at 1.3 µM ([2]; read-out: Inhibition of surface area): 5.8 ± 0.9%; Chlorophyll Content EC10 ([2]; in vivo): 0.0011 (0.0003–0.0018) mM; Decrease in chlorophyll content ([2]; in vivo): 15 ± 3%; Frond Number EC10 ([2]; in vivo): 0.0019 (0.0015–0.0023) mM; Surface Area EC10 ([2]; in vivo): 0.0016 (0.0011–0.0021) mM; Body Length EC10 ([3]; in vivo): 0.12 (0.094–0.14) mM; Decrease in nematode survival ([3]; in vivo): 2.6 ± 4%; Impairment to behavior (nose touch response) ([3]; in vivo): 16 ± 3%; Impairment to body length ([3]; in vivo): 5.9 ± 4%; Nose Touch EC10 ([3]; in vivo): 0.12 (0.11–0.15) mM; Survival EC10 ([3]; in vivo): 0.19 (0.15–0.23) mM
CON(C)C(=O)Nc1ccc(Cl)c(Cl)c1 [Linuron]	63	0.00010 (0.000069–0.00013) mM	0.00015 (0.00013–0.00016) mM	0.00014 (0.00013–0.00016) mM	0.15	0.18	0.18	0.036 (0.0030–0.070) mM	0.056 (0.029–0.083) mM	0.29 (0–1.3) mM	220	150	650	–	–	Chlorophyll Content EC10 ([2]; 168 hour (7 day), 95% confidence interval in brackets, listed as linuron): 0.00010 mM
CCCN(CCC)c1c([N+](=O)[O-])cc(C(F)(F)F)cc1[N+](=O)[O-] [Trifluralin]	10	0.000042 (0–0.00015) mM	0.00037 (0–0.00075) mM	0.00062 (0–0.0014) mM	4.6	1.8	1.4	0.19 (0–1.2) mM	0.19 (0–0.59) mM	0.13 (0.13–0.14) mM	180	220	140	–	–	Chlorophyll Content EC10 ([2]; 168 hour (7 day), 95% confidence interval in brackets, listed as trifluralin): 0.000042 mM; Nose Touch EC10 ([3]; 48 hour, 95% confidence interval in brackets, listed as trifluralin): 0.19 mM
O=C(O)CNCP(=O)(O)O [Glyphosate]	160	0.054 (0–0.30) mM	0.034 (0.022–0.046) mM	0.053 (0.036–0.071) mM	94	57	60	0.22 (0.13–0.31) mM	0.15 NA mM	0.21 NA mM	250	1000	360	−4.6	1050 (≈ 6.21 mM)	–
CNC(=O)O/N=C/C(C)(C)SC [Aldicarb]	4.6	0.096 (0.017–0.17) mM	0.40 (0.28–0.52) mM	1.0 (0–3.9) mM	110	1260	11000	0.22 (0–0.62) mM	0.27 (0–1.6) mM	0.47 (0.29–0.65) mM	250	9600	650	1.1	–	–
CCOP(=S)(OCC)Oc1cc(C)nc(C(C)C)n1 [Diazinon]	55	0.016 (0–0.071) mM	0.030 (0–0.140) mM	0.031 (0–0.12) mM	260	330	570	0.016 (0.0083–0.024) mM	0.080 (0.068–0.093) mM	0.057 (0.052–0.061) mM	77	120	71	–	–	Chlorophyll Content EC10 ([2]; 168 hour (7 day), 95% confidence interval in brackets, listed as diazinon): 0.0016 mM
